The values that follow come from patent US20100227859A1, “TRICYCLIC COMPOUNDS AS MATRIX METALLOPROTEINASE INHIBITORS” (priority 2007, published 2010).

The target in the experiment is purified human MMP-12 enzyme (Homo sapiens, UniProt P39900). In words: MMP-12 FRET assay. The experiment is classed as biochemical. The following applies: substrate 20 μM, room temperature. The method in brief: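 Initial fluorescence rate (325/395 nm) of cleavage of MCA-Pro-Leu-Gly-Leu-Dpa(DNP)-Ala-Arg, 20 μM final, was followed for 30 min at room temperature after a 30 min enzyme–compound preincubation. Buffer: 50 mM HEPES pH 7.4, 100 mM NaCl, 5 mM CaCl2, 0.005% Brij-35, with 10% final DMSO. IC50 came from a Hill-type fit of rate versus inhibitor concentration.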
purified human MMP-12 enzyme, sequence (P39900 106-470): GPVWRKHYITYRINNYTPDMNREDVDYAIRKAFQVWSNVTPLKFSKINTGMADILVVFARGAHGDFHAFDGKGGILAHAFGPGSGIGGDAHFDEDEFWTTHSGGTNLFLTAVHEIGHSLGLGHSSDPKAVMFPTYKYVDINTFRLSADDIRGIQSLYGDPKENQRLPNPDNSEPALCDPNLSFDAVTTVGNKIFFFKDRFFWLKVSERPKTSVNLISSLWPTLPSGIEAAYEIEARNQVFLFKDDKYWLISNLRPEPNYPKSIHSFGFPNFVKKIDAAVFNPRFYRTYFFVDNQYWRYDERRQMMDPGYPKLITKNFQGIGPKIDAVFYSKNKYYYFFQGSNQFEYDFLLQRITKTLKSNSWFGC
With `CC(C)[C@H](NS(=O)(=O)c1ccc2c(c1)oc1ccc(-c3ccc(C(F)(F)F)s3)cc12)C(=O)O` [Compound 131, (S)-3-methyl-2-(8-(5-(trifluoromethyl)thiophen-2-yl)dibenzo[b,d]furan-3-sulfonamido)butanoic acid], the IC50 is under 1.5 nM.
In the case of `CC(C)[C@H](NS(=O)(=O)c1ccc2c(c1)oc1ccc(C(=O)O)cc12)C(=O)O` [Compound 273, (S)-7-(N-(1-carboxy-2-methylpropyl)sulfamoyl)dibenzo[b,d]furan-2-carboxylic acid], the half-inhibitory concentration (IC50) was determined as 210 nM.
The figure for `CC(C)[C@H](NS(=O)(=O)c1ccc2c(c1)oc1ccc(-c3noc(C4CCOCC4)n3)cc12)C(=O)O` [Compound 260, (S)-3-methyl-2-(8-(5-(tetrahydro-2H-pyran-4-yl)-1,2,4-oxadiazol-3-yl)dibenzo[b,d]furan-3-sulfonamido)butanoic acid] is 1.7 nM; for `CC(C)[C@@H](NS(=O)(=O)c1ccc2oc3cc(-c4nc5ccc(C(F)(F)F)cc5s4)ccc3c2c1)C(=O)O` [Compound 302, (R)-3-methyl-2-(7-(6-(trifluoromethyl)benzo[d]thiazol-2-yl)dibenzo[b,d]furan-2-sulfonamido)butanoic acid] it is 28 nM; for `Cc1nc(-c2ccc3c(c2)oc2cc(S(=O)(=O)N[C@H](C(=O)O)C(C)C)ccc23)no1` [Compound 156, (S)-3-methyl-2-(7-(5-methyl-1,2,4-oxadiazol-3-yl)dibenzo[b,d]furan-3-sulfonamido)butanoic acid] it is 6.9 nM.
Turning to `CCNC(=N)c1ccc2oc3cc(S(=O)(=O)N[C@H](C(=O)O)C(C)C)ccc3c2c1` [Compound 128, (S)-2-(8-(N-ethylcarbamimidoyl)dibenzo[b,d]furan-3-sulfonamido)-3-methylbutanoic acid], half-maximal inhibition (IC50) was put at 73 nM. This IC50 is about 11-fold higher than that of the compound before.
Consider `CC(C)[C@@H](NS(=O)(=O)c1ccc2oc3cc(-c4ccc(Cl)nc4)ccc3c2c1)C(=O)O` [Compound 101, (R)-2-(7-(6-chloropyridin-3-yl)dibenzo[b,d]furan-2-sulfonamido)-3-methylbutanoic acid], for which the IC50 was 5.1 nM. Against the preceding compound, the IC50 is about 14-fold lower.
The figure for `CC(C)[C@H](NS(=O)(=O)c1ccc2c(c1)oc1ccc(-c3noc(-c4ccc(F)cc4)n3)cc12)C(=O)O` [Compound 272, (S)-2-(8-(5-(4-fluorophenyl)-1,2,4-oxadiazol-3-yl)dibenzo[b,d]furan-3-sulfonamido)-3-methylbutanoic acid] is under 1.5 nM; for `CC(C)CCn1cc(-c2ccc3sc4cc(S(=O)(=O)N[C@H](C(=O)O)C(C)C)ccc4c3c2)cn1` [Compound 43, (S)-2-(8-(1-isopentyl-1H-pyrazol-4-yl)dibenzo[b,d]thiophene-3-sulfonamido)-3-methylbutanoic acid] it is 88 nM.
`CC(C)[C@H](NS(=O)(=O)c1ccc2c(c1)oc1ccc(-c3ccco3)cc12)C(=O)O` [Compound 37, (S)-2-(8-(furan-2-yl)dibenzo[b,d]furan-3-sulfonamido)-3-methylbutanoic acid]: the IC50 turned out to be 1.9 nM.
`CC(C)Cc1nc(-c2ccc3c(c2)oc2ccc(S(=O)(=O)N[C@@H](C(=O)O)C(C)C)cc23)no1` [Compound 149, (R)-2-(7-(5-isobutyl-1,2,4-oxadiazol-3-yl)dibenzo[b,d]furan-2-sulfonamido)-3-methylbutanoic acid] showed an IC50 of 5.3 nM.
Consider `CC(C)[C@H](NS(=O)(=O)c1ccc2c(c1)oc1ccc(-c3nc4ccccc4o3)cc12)C(=O)O` [Compound 194, (S)-2-(8-(benzo[d]oxazol-2-yl)dibenzo[b,d]furan-3-sulfonamido)-3-methylbutanoic acid], for which the IC50 came to 4.6 nM.
In turn, `Cc1csc(-c2ccc3oc4cc(S(=O)(=O)N[C@H](C(=O)O)C(C)C)ccc4c3c2)c1` [Compound 33, (S)-3-methyl-2-(8-(4-methylthiophen-2-yl)dibenzo[b,d]furan-3-sulfonamido)butanoic acid] showed an IC50 of under 1.5 nM.
As for `CC(C)[C@H](NS(=O)(=O)c1ccc2c(c1)oc1ccc(-c3cnn(Cc4ccccc4)c3)cc12)C(=O)O` [Compound 22, (S)-2-(8-(1-benzyl-1H-pyrazol-4-yl)dibenzo[b,d]furan-3-sulfonamido)-3-methylbutanoic acid], the midpoint of inhibition, the IC50, lay at 3 nM.
The figure for `CC(C)[C@H](NS(=O)(=O)c1ccc2c(c1)oc1cc(-c3cccs3)ccc12)C(=O)O` [Compound 81, (S)-3-methyl-2-(7-(thiophen-2-yl)dibenzo[b,d]furan-3-sulfonamido)butanoic acid] is under 1.5 nM; for `CC(C)[C@@H](NS(=O)(=O)c1ccc2oc3cc(-c4ccsc4)ccc3c2c1)C(=O)O` [Compound 97, (R)-3-methyl-2-(7-(thiophen-3-yl)dibenzo[b,d]furan-2-sulfonamido)butanoic acid] it is under 1.5 nM.
In the case of `CC(C)(C)c1nc(-c2ccc3c(c2)oc2ccc(S(=O)(=O)NCC(=O)O)cc23)no1` [Compound 274, 2-(7-(5-tert-butyl-1,2,4-oxadiazol-3-yl)dibenzo[b,d]furan-2-sulfonamido)acetic acid], the IC50 turned out to be 60 nM. This counts as double-digit nanomolar.
`CC(C)[C@@H](NS(=O)(=O)c1ccc2oc3cc(-c4noc(-c5ccccc5)n4)ccc3c2c1)C(=O)O` [Compound 150, (R)-3-methyl-2-(7-(5-phenyl-1,2,4-oxadiazol-3-yl)dibenzo[b,d]furan-2-sulfonamido)butanoic acid] yielded an IC50 of 5 nM.
As for `CC(C)[C@@H](NS(=O)(=O)c1ccc2oc3cc(-c4cc5cc(F)ccc5[nH]4)ccc3c2c1)C(=O)O` [Compound 122, (R)-2-(7-(5-fluoro-1H-indol-2-yl)dibenzo[b,d]furan-2-sulfonamido)-3-methylbutanoic acid], the midpoint of inhibition, the IC50, lay at 6.9 nM.
For `CC(C)[C@@H](NS(=O)(=O)c1ccc2oc3cc(-c4noc(C5CC5)n4)ccc3c2c1)C(=O)O` [Compound 147, (R)-2-(7-(5-cyclopropyl-1,2,4-oxadiazol-3-yl)dibenzo[b,d]furan-2-sulfonamido)-3-methylbutanoic acid], the IC50 is under 1.5 nM.
The compound `CC(C)[C@@H](NS(=O)(=O)c1ccc2oc3cc(-c4nc5ccc(OC(F)(F)F)cc5s4)ccc3c2c1)C(=O)O` [Compound 301, (R)-3-methyl-2-(7-(6-(trifluoromethoxy)benzo[d]thiazol-2-yl)dibenzo[b,d]furan-2-sulfonamido)butanoic acid] displayed an IC50 of 78 nM.
`Cc1nc(-c2ccc(C(F)(F)F)cc2)sc1-c1ccc2oc3cc(S(=O)(=O)N[C@H](C(=O)O)C(C)C)ccc3c2c1` [Compound 164, (S)-3-methyl-2-(8-(4-methyl-2-(4-(trifluoromethyl)phenyl)thiazol-5-yl)dibenzo[b,d]furan-3-sulfonamido)butanoic acid] showed a half-inhibitory concentration (IC50) of 12.3 nM.
The same measure for `CC(C)[C@H](NS(=O)(=O)c1ccc2c(c1)sc1ccc(-c3cccnc3)cc12)C(=O)O` [Compound 11, (S)-3-methyl-2-(8-(pyridin-3-yl)dibenzo[b,d]thiophene-3-sulfonamido)butanoic acid]: 15.6 nM.
Compound `CC(C)[C@H](NS(=O)(=O)c1ccc2c(c1)oc1ccc(-c3ccc(F)s3)cc12)C(=O)O` [Compound 124, (S)-2-(8-(5-fluorothiophen-2-yl)dibenzo[b,d]furan-3-sulfonamido)-3-methylbutanoic acid] yielded an IC50 of under 1.5 nM.

Broadly, the IC50 is the concentration needed to halve the response being measured. Low values mean greater potency, high ones weaker potency.
